Our source for the IC50 values is ChEMBL document CHEMBL3351286, “Strategies to inhibit tumor associated integrin receptors: rationale for dual and multi-antagonists” (J Med Chem, 2014).

The target of assay [1] is T1, Integrin alpha-V/beta-3 (Homo sapiens, UniProt P05106+P06756). The experiment in a line: Antagonist activity at alphavbeta3 integrin receptor (unknown origin) by cell-free ELISA. In kind it is protein-complex assay.
Assay [2] has as its target T2, Integrin alpha-V/beta-5 (Homo sapiens, UniProt P06756+P18084). The assay is described as follows: Antagonist activity at alphavbeta5 integrin receptor (unknown origin) by cell-free ELISA. In kind it is protein-complex assay.
Assay [3] deals with Integrin alpha-IIb/beta-3 (Homo sapiens, UniProt P05106+P08514). The experiment in a line: Antagonist activity at alpha2bbeta3 integrin receptor (unknown origin) by cell-free ELISA. Format: protein-complex assay. (In general: ELISA stands for enzyme-linked immunosorbent assay.)
Chain of Integrin alpha-IIb/beta-3 (Homo sapiens, UniProt P05106+P08514) (P05106 27-788 limits assumed): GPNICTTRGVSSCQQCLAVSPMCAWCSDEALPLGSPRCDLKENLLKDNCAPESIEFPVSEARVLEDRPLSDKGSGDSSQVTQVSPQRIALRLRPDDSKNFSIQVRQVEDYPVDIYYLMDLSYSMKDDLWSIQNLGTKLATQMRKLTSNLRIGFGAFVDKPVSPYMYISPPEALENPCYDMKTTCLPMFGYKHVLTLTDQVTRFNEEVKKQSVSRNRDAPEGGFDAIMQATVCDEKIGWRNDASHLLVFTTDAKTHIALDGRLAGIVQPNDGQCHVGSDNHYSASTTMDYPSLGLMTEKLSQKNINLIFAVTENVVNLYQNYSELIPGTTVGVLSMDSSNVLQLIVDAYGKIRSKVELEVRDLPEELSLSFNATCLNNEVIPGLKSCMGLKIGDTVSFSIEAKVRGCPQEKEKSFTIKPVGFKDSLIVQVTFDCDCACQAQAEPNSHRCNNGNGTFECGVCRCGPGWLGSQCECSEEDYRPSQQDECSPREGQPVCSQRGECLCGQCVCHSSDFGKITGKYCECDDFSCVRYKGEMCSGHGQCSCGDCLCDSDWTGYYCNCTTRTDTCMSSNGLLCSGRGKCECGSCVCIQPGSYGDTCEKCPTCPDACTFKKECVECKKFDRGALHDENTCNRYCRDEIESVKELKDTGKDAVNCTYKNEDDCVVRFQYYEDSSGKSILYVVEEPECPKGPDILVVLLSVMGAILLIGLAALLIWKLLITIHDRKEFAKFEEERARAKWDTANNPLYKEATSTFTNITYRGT
Chain of Integrin alpha-IIb/beta-3 (Homo sapiens, UniProt P05106+P08514) (P08514 32-887 limits assumed): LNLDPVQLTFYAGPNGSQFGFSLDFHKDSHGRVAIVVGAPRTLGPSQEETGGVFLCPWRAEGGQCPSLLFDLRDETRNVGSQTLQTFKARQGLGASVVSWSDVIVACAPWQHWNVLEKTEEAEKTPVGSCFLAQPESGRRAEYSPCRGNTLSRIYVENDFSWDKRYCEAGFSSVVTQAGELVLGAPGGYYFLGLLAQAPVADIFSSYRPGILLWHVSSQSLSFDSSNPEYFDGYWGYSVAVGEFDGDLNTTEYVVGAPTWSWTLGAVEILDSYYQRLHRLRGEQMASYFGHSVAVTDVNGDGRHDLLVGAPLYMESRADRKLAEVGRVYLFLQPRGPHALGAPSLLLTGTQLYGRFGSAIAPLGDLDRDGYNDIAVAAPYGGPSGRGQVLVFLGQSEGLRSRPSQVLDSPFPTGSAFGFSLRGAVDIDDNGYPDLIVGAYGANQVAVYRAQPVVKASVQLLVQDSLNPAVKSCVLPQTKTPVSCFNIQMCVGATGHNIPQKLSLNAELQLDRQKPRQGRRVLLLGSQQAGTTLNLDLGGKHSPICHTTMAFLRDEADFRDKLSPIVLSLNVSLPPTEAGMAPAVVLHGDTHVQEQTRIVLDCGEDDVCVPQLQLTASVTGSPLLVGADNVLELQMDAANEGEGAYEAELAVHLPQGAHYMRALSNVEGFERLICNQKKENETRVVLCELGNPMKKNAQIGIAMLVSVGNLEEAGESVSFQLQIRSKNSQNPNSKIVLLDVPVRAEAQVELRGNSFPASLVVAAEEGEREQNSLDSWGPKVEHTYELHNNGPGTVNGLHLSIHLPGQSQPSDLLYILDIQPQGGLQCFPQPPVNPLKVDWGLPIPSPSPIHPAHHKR
Chain of Integrin alpha-IIb/beta-3 (Homo sapiens, UniProt P05106+P08514) (P08514 891-1039 limits assumed): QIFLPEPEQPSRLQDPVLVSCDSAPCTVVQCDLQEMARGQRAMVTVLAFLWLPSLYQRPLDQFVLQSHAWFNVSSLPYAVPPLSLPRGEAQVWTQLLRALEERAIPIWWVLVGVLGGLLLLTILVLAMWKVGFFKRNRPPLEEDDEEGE
Assay [4] addresses T1, Integrin alpha-V/beta-3. The experiment in a line: Antagonist activity at alphavbeta3 integrin receptor (unknown origin) by cell-based ELISA.
Assay [5] deals with T3, Integrin alpha-5/beta-1 (Homo sapiens, UniProt P05556+P08648). The assay is described as follows: Antagonist activity at alpha5beta1 integrin receptor (unknown origin) by cell-based ELISA.
T3 sequence (P05556 21-798 limits assumed): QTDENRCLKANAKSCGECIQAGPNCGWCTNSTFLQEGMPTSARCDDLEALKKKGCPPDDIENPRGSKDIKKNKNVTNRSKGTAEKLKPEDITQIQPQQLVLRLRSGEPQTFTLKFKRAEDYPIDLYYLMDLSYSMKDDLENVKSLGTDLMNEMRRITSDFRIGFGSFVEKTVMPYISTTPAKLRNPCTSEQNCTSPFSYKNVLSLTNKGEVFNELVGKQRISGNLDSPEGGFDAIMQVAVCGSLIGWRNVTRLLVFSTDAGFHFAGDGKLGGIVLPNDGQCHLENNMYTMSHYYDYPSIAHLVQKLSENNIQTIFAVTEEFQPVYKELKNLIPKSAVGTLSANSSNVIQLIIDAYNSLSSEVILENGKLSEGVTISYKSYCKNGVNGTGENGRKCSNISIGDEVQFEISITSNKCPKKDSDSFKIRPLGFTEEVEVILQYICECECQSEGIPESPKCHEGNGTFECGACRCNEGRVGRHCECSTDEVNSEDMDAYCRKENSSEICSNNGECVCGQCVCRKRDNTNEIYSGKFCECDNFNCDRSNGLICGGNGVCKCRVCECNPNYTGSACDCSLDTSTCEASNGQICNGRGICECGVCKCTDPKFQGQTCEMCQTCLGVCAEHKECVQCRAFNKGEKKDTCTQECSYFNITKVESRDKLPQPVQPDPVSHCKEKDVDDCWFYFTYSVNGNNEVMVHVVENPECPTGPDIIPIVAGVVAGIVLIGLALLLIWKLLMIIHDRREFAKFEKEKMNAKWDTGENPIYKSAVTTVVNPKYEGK
T3 sequence (P08648 42-894 limits assumed): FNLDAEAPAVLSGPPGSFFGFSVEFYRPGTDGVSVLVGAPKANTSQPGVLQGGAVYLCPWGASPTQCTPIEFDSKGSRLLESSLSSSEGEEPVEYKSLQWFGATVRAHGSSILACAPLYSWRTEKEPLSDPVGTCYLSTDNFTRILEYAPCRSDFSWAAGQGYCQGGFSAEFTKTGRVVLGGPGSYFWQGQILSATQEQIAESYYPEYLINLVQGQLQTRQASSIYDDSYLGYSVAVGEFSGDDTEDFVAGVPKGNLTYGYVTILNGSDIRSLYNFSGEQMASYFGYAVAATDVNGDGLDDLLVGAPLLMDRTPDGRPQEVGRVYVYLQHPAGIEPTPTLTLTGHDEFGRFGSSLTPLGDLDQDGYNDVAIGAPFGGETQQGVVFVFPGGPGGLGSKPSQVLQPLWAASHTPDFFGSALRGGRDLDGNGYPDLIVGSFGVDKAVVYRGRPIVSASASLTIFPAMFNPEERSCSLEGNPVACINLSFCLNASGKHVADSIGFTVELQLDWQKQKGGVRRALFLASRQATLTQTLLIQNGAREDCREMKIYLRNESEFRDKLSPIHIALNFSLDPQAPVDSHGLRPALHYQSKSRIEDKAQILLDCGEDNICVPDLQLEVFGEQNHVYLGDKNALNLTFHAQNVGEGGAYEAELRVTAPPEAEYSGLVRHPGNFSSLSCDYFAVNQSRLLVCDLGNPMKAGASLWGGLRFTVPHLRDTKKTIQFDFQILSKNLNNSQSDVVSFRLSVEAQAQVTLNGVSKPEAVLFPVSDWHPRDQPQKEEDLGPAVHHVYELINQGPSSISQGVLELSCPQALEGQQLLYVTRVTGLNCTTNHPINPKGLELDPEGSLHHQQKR
T3 sequence (P08648 895-1049 limits assumed): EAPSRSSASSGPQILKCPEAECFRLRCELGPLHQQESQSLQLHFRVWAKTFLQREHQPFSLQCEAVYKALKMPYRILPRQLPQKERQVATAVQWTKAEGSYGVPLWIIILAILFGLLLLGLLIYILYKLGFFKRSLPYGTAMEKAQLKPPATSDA
For assay [6], the target named is T2, Integrin alpha-V/beta-5. The assay is described as follows: Antagonist activity at alphavbeta5 integrin receptor (unknown origin) by cell-based ELISA.
Assay [7] concerns the target T4, Integrin alpha-V/beta-1 (Homo sapiens, UniProt P05556+P06756). The assay is described as follows: Antagonist activity at alphavbeta1 integrin receptor in HEK293 cells after 4 hrs using p-nitrophenyl phosphate by colorimetry. In kind it is cell-based.
Assay [8] addresses T1, Integrin alpha-V/beta-3. The experiment in a line: Antagonist activity at alphavbeta3 integrin receptor in HEK293 cells after 4 hrs using p-nitrophenyl phosphate by colorimetry. Format: cell-based.
In a further assay the target is Integrin alpha-V/beta-6 (Homo sapiens, UniProt P06756+P18564). The assay is described as follows: Antagonist activity at alphavbeta6 integrin receptor in human HT29 cells after 4 hrs using p-nitrophenyl phosphate by colorimetry. Format: cell-based, HT-29.
The target in a further assay is Integrin alpha-V/beta-8 (Homo sapiens, UniProt P06756+P26012). The experiment in a line: Antagonist activity at human recombinant alphavbeta8 integrin receptor expressed in HEK293 cells after 4 hrs using p-nitrophenyl phosphate by colorimetry. Format: cell-based.
Assay [9] addresses T3, Integrin alpha-5/beta-1. The assay is described as follows: Antagonist activity at alpha5beta1 integrin receptor in K562 cells after 4 hrs using p-nitrophenyl phosphate by colorimetry. Format: cell-based.
The target of assay [10] is Integrin alpha-V/beta-5 (Homo sapiens) [+]. The experiment in a line: Antagonist activity at alphavbeta5 integrin receptor in HEK293 cells after 4 hrs using p-nitrophenyl phosphate by colorimetry.
The target of assay [11] is T4, Integrin alpha-V/beta-1. The experiment in a line: Antagonist activity at alphavbeta1 integrin receptor (unknown origin) by cell-based ELISA.
Assay [12] has as its target T3, Integrin alpha-5/beta-1. The experiment in a line: Antagonist activity at alpha5beta1 integrin receptor (unknown origin) by cell-free ELISA. Format: protein-complex assay.
The target in assay [13] is T5, Integrin alpha-V/beta-3 (Mus musculus, UniProt O54890+P43406).
T5 sequence (O54890 whole entry): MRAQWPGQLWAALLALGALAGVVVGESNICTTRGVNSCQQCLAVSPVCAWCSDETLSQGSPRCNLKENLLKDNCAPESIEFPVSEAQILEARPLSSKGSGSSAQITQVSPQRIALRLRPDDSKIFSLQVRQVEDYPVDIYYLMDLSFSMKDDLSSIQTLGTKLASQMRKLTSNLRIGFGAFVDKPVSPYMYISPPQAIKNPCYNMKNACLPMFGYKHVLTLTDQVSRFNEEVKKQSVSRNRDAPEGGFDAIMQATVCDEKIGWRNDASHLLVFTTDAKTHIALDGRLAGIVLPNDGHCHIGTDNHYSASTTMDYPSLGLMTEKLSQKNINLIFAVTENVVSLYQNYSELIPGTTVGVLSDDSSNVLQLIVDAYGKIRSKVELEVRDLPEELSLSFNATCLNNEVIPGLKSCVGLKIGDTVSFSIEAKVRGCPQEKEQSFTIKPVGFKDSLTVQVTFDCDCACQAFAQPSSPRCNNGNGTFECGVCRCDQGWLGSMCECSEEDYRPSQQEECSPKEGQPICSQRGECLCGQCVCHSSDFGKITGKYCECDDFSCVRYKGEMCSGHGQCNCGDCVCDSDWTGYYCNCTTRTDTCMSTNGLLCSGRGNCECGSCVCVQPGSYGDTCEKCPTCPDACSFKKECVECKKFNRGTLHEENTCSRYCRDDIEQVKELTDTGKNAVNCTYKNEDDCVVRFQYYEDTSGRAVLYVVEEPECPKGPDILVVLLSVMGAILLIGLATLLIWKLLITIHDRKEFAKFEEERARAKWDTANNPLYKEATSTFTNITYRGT
T5 sequence (P43406 whole entry): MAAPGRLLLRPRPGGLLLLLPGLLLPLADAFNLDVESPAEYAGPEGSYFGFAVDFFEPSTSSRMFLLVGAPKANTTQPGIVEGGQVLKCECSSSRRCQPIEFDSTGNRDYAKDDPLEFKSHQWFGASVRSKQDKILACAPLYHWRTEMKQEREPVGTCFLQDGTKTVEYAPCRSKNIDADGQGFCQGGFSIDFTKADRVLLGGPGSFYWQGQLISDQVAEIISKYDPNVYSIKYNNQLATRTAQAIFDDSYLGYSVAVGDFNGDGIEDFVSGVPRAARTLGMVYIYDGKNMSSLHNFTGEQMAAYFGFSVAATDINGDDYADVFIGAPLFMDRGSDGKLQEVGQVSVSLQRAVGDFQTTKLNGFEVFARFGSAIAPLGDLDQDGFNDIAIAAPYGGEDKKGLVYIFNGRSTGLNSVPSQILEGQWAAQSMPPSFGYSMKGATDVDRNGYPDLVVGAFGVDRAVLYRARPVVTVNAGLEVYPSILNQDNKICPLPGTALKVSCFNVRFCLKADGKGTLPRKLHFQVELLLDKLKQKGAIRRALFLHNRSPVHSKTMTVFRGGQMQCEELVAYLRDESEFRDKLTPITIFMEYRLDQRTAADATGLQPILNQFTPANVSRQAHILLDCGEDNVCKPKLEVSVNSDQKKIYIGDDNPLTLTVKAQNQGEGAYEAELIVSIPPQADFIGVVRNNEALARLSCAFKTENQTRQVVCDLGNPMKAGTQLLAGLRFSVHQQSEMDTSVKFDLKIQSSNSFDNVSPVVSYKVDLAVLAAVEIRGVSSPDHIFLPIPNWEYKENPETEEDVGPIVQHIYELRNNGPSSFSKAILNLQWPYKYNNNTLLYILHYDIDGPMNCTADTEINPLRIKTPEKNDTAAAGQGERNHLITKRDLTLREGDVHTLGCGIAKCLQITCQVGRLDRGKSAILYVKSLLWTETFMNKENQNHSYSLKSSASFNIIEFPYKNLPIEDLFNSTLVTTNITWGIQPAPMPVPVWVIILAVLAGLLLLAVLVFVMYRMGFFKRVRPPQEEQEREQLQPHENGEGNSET
The assay is described as follows: Antagonist activity at mouse endothelial alphavbeta3 integrin receptor by cell adhesion assay. Format: protein-complex assay.

In assay [14] the target is T6, Integrin alpha-IIb/beta-3 (Mus musculus, UniProt O54890+Q9QUM0).
T6 sequence (Q9QUM0 whole entry): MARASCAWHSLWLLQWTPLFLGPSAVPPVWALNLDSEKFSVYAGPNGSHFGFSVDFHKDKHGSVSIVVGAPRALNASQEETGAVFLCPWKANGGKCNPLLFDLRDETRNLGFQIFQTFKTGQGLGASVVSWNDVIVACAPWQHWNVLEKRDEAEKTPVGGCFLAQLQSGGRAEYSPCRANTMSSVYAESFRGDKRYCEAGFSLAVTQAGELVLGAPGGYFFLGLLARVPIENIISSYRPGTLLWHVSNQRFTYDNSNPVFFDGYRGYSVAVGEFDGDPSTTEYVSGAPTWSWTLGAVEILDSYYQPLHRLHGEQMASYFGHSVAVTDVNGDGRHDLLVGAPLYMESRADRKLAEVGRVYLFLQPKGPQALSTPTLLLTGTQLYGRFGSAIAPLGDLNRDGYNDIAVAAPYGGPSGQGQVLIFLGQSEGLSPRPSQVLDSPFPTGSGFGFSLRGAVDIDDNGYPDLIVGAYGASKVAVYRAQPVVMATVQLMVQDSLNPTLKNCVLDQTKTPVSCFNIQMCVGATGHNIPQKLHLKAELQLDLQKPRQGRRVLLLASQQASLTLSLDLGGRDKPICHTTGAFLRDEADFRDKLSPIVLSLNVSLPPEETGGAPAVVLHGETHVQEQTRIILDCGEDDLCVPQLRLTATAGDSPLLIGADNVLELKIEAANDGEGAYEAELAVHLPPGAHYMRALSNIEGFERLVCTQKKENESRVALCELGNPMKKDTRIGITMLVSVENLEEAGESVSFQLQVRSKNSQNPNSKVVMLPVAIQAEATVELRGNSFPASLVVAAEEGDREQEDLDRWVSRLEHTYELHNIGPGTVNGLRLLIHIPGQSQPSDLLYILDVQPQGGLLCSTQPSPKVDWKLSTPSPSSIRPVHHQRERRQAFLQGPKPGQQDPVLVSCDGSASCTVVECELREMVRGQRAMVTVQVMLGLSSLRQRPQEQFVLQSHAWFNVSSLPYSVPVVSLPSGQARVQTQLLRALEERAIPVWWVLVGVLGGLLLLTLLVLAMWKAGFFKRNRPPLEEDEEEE
T6 sequence (O54890 whole entry): T5 sequence (O54890 whole entry)
The assay is described as follows: Antagonist activity at mouse endothelial alpha2bbeta3 integrin receptor by cell adhesion assay. Format: protein-complex assay.

The structures appear in SMILES notation.

T4 sequence (P05556 21-798 limits assumed): as the sequence (P05556 21-798 limits assumed) above
T4 sequence (P06756 31-889 limits assumed): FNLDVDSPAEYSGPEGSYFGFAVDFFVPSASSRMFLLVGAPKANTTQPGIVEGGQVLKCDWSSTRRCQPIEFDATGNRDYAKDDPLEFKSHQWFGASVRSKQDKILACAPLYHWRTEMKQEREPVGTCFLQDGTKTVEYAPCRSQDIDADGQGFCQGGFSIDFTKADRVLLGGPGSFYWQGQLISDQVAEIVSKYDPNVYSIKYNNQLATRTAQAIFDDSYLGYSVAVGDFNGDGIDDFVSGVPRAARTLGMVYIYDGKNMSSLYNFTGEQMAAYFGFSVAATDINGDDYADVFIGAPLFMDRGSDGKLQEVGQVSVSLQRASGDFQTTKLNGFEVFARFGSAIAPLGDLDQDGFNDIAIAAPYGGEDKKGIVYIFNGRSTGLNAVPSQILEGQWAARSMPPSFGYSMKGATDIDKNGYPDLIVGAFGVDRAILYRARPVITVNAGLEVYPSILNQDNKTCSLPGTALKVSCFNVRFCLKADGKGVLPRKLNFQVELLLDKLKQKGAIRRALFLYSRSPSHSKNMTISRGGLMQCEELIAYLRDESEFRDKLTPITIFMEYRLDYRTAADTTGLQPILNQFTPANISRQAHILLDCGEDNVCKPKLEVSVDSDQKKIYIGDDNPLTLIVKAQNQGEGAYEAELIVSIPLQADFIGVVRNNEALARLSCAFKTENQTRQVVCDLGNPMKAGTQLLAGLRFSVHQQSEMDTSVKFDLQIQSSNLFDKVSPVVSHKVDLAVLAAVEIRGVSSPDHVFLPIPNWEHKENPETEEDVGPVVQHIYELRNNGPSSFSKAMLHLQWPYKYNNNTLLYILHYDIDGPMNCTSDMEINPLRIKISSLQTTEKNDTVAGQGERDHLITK
T4 sequence (P06756 891-1048 limits assumed): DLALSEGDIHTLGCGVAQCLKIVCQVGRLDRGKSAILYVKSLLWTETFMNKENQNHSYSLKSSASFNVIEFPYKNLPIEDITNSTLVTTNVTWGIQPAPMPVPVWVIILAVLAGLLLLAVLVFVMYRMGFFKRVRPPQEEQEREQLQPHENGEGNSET
T1 sequence (P05106 27-788 limits assumed): as the sequence (P05106 27-788 limits assumed) above
T1 sequence (P06756 31-889 limits assumed): as the sequence (P06756 31-889 limits assumed) above
T1 sequence (P06756 891-1048 limits assumed): as the sequence (P06756 891-1048 limits assumed) above

In the case of `O=C(O)CC1CC(CNC(=O)CCCNc2ccccn2)=CCc2ccccc21` (stereo unspecified), the IC50 against Integrin alpha-V/beta-3 [1] amounted to 2 nM; against Integrin alpha-V/beta-5 [2], 1 nM.

For `N=C(N)NCc1cccc(-c2ccc(C(=O)NC[C@H](NS(=O)(=O)c3ccccc3)C(=O)O)s2)c1`, the concentration for half-maximal inhibition (IC50) in assay [3] amounted to 0.3 nM; at Integrin alpha-V/beta-3 [4], 0.033 nM.

With `Cc1cc(C)c(S(=O)(=O)N[C@@H](CNC(=O)c2ccc(-c3cccc(CN=C(N)N)c3)s2)C(=O)O)c(C)c1`, the half-inhibitory concentration (IC50) was found to be 0.2 nM in assay [3], 20 nM against Integrin alpha-5/beta-1 [5], 3.5 nM at Integrin alpha-V/beta-3 [4] and 60 nM on Integrin alpha-V/beta-5 [6].

Turning to `O=C(O)C[C@H](NC(=O)CNC(=O)c1cc(O)cc(NC2=NCC(O)CN2)c1)c1cc(Cl)cc(Br)c1O` (stereo partly specified), the IC50 in assay [3] came to 257 nM; at Integrin alpha-V/beta-1 [7], 10.4 nM; at Integrin alpha-V/beta-3 [8], 1.6 nM; on Integrin alpha-V/beta-6, 11.7 nM; on Integrin alpha-V/beta-8 it was 1.71 nM; at Integrin alpha-5/beta-1 [9], 316 nM. The same compound had an IC50 in assay [10] of 18.1 nM.

With `O=C(O)C[C@H](NC(=O)CNC(=O)c1cncc(N=C2NCC(O)CN2)c1)c1cc(Cl)cc(Br)c1O` (stereo partly specified), the 50% inhibitory concentration (IC50) came to 380 nM in [3]; 1.59 nM against Integrin alpha-V/beta-1 [7]; 1.13 nM at Integrin alpha-V/beta-6; 0.65 nM on Integrin alpha-V/beta-8; 64 nM against Integrin alpha-5/beta-1 [9]; 1.5 nM in assay [10].

In assay [3], `N=C(N)NCCC[C@@H]1NC(=O)CNC(=O)[C@H](CC(=O)O)N[C@H](C(=O)O)C[S+]([O-])CC(=O)N[C@H](Cc2ccc(O)cc2)C1=O` (stereo partly specified) gave an IC50 of 1.5 nM.

Take `N=C(N)NCCCCC(=O)NCC(=O)NC(CC(=O)O)c1cccnc1` (stereo unspecified): the IC50 is 9 nM in assay [3]; 10 nM against Integrin alpha-V/beta-3 [1]; 70000 nM at Integrin alpha-5/beta-1 [5]; 317 nM on Integrin alpha-V/beta-1 [11]; 120 nM against Integrin alpha-V/beta-3 [4]; 23 nM on Integrin alpha-V/beta-5 [6].

Turning to `N=C(N)NCCC[C@H](NC(=O)OCc1ccccc1)[C@H]1CC[C@H](C(=O)NC[C@H](NC(=O)OCc2ccccc2)C(=O)O)O1`, the figures for the IC50 (in assay [3]; against Integrin alpha-V/beta-3 [1]) were 67 nM and 52 nM, respectively.

As to `N=C(N)NCCCc1cn(CC(=O)N[C@@H](CC(=O)O)c2ccccc2)nn1`, the IC50 against Integrin alpha-V/beta-3 [1] came out at 1.35 nM; against Integrin alpha-V/beta-5 [2], 1.02 nM.

With `O=C(N[C@@H](CNC(=O)c1ccc(CN(Cc2nc3ccccc3[nH]2)C(=O)NC2CCCCC2)cc1)C(=O)O)OCc1ccccc1`, the figures for the IC50 against Integrin alpha-V/beta-3 [1], against Integrin alpha-V/beta-5 [2] and against Integrin alpha-5/beta-1 [12] were 3.2 nM, 1.7 nM and 421 nM, respectively.

For `C=Cc1cnc(NC[C@@H]2C[C@]3(CC(C(=O)NC[C@H](NS(=O)(=O)c4c(C)cc(C)cc4C)C(=O)O)=NO3)CN2C(=O)OCCCC)[nH]1`, the figures for the IC50 against Integrin alpha-V/beta-3 [1] and against Integrin alpha-5/beta-1 [12] were 87 nM and 0.39 nM, respectively.

Turning to `Cc1cc(C)c(S(=O)(=O)N[C@@H](CNC(=O)c2ccc3c(cnn3CCCNc3ncc[nH]3)c2)C(=O)O)c(C)c1`, the half-inhibitory concentration (IC50) worked out at 2.3 nM against Integrin alpha-V/beta-3 [13] and 21 nM in [14].

For the compound `O=C(NC[C@H](NS(=O)(=O)c1c(Cl)cccc1Cl)C(=O)O)c1ccc2c(cnn2CCCNc2ncc[nH]2)c1`, the 50% inhibitory concentration (IC50) amounted to 8.5 nM against Integrin alpha-V/beta-3 [13] and 12 nM in assay [14].

Usually IC50 stands for the concentration that gives 50% inhibition.
